The source of these data is patent US20160228388A1, “METHODS OF ADMINISTERING AMANTADINE COMPOSITIONS” (Adamas Pharmaceuticals, Inc., priority 2014, published 2016).

The conditions of data set [1]: dose related; Gracies and Olanow 2002; cited from earlier work.
The subject of data set [2] is MOG35-55 induced experimental autoimmune encephalomyelitis (EAE) in C57BL/6 mice. Put plainly: Example 9: kinematic gait analysis / MotoRater walk test in EAE mice. Format: in vivo. The following applies: for % of animals able to complete the walking test: day 16, EAE mice, untreated EAE control 40%, FIG. 9. As to the method: The captured videos of each mouse were first converted to SimiMotion software to track the marked points of body (e.g., paws, hips, tail, etc.), and the movement of these different body points in relation to the ground were recorded in coordinates. Different gait patterns and fine motor movements were analyzed using a custom made automated analysis system. Kinematic endpoints are described in Table 13. [table] Kinematic parameters (Table 13) were graphed as individual values in a scatter graph and/or as mean (±SEM) in a bar graph.

Data set [3] shares this test system. Put plainly: Example 9: clinical scoring of EAE in a mouse model of multiple sclerosis. Type of data set: in vivo. The following applies: for onset of disease / clinical scores: AMT 60 mg/kg/day or DAL 4 mg/kg/day by Alzet minipump; for clinical scores: vs untreated EAE mice, FIG. 6; for cumulative clinical score (Day 18-27): vs untreated control, FIG. 7.
The next data set relates to Iba-1. The data set can be described thus: Example 9: Iba-1 expression (marker of microglia activation) in EAE mice. Type of data set: in vivo. The following applies: AMT 60 mg/kg/day, FIG. 8.
The next data set deals with Parkinson's patients. To be noted: cited from earlier work.
Data set [4] has as its system multiple sclerosis patients. The following applies: Goodman et al. 2009; cited from earlier work.

Where a name gives a salt, the structure may show the parent alone.

Consider `NC12CC3CC(CC(C3)C1)C2` [Amantadine HCl], for which the CNS side effects entry in data set [1] is “dose related CNS side effects including dizziness, confusion, hallucinations, insomnia and nightmares”. Also, in data set [2] (Day 14, vs untreated EAE control and dalfampridine-treated group, FIG. 10A), the “60 cm Walk Time” value is on record as “lower time”. Also, the mean walking speed result in data set [2] (Day 14, vs untreated EAE control and dalfampridine-treated group, FIG. 10B) is “faster mean walking speed”. For the same compound, the “% of animals able to complete the walking test” value in data set [2] is on record as 60%. Besides, the symptom severity result in data set [3] (AMT 60 mg/kg/day by Alzet minipump) is given as “decreased symptom severity”. In data set [3], the onset of disease result is recorded as “Neither group treated with drug showed a delay onset of disease”, the clinical scores entry is “lower clinical scores” and the “cumulative clinical score (Day 18-27)” value is “reduced cumulative clinical scores”. The Iba-1 expression result in the data set with Iba-1 is listed as “significantly lower expression”.
`Nc1ccncc1` [Dalfampridine, 4-Aminopyridine]: the “walking ability (velocity and stride length)” value in the data set on Parkinson's patients (Parkinson's patients, at four weeks, Luca et al. 2015) was “did not show an improvement”. For the same compound, the “% of animals able to complete the walking test” value in data set [2] was 50%. Besides, in data set [3], the onset of disease result was “Neither group treated with drug showed a delay onset of disease”, the clinical scores result is “lower clinical scores” and the “cumulative clinical score (Day 18-27)” value is “reduced cumulative clinical scores”. The walking ability entry in data set [4] is “improvement in walking ability in some patients”.
On to `COC(=O)C(c1ccccc1)C1CCCCN1` (centres unmarked) [Methylphenidate], for which the gait impairment result in the data set with Parkinson's patients (Parkinson's disease, Espay et al. 2011) is “not effective”. Besides, in the data set with Parkinson's patients (Parkinson's patients with severe gait disorders receiving STN stimulation, Moreau et al. 2012), the gait result is recorded as “improvement in gait”.
